According to article PMC7900207, “Checkpoint inhibition through small molecule-induced internalization of programmed death-ligand 1” (Nature Communications, 2021):

Key:
PD-1/PD-L1 = tested on: T1, PD-1/PD-L1; test: cells; design: species or system Jurkat PD-1 effector cells with PD-L1 aAPC/CHO-K1; PD-1/PD-L1 blockade bioassay, NFAT luciferase reporter, Bio-Glo luminescence; settings: Homo sapiens, Jurkat; NFAT reporter bioassay
T1 construct: PD-L1 on aAPC/CHO-K1 cells, PD-1 on Jurkat effector cells (Promega)
Description: BioAssay is designed to measure luciferase activity showing the EC50 level of PD-1/PD-L1 blocking by small molecules targeting PD-L1 protein in the cell. PD-1 effector cells were incubated with PD-L1 aAPC/CHO-K1 cells in the absence or presence of small molecules or αPD-L1 blocking antibodies, as indicated titration according to the manufacturer’s instruction (Promega). Bio-Glo™ Reagent was added and luminescence quantified. Data were analyzed using GraphPad Prism. Small molecules were first screened in a cell-free in vitro homogeneous time-resolved fluorescence (HTRF) assay, utilizing αPD-L1 (MIH1) and αPD-1 (nivolumab) antibodies as positive controls. […] It has been reported that a small molecule can stabilize a dimer form of PD-L1 through interactions with antiparallel residues in the hydrophobic dimer interface. To test if compound A can induce intermolecular PD-L1 interactions in solution, we developed a homodimer HTRF assay. […] In this assay, preventing the PD-1/PD-L1 interaction results in a release of constitutive NFAT reporter suppression and increases luciferase activity (relative luminescence units). […] We determined if compound A cellular bioassay potency could translate into immunomodulatory effects on primary human immune cells. […]

cell surface PD-L1 = biological target: T2, cell surface PD-L1 (Homo sapiens, UniProt Q9NZQ7); test: cell-based
T2 construct: gene CD274
T2 sequence (Q9NZQ7 whole entry): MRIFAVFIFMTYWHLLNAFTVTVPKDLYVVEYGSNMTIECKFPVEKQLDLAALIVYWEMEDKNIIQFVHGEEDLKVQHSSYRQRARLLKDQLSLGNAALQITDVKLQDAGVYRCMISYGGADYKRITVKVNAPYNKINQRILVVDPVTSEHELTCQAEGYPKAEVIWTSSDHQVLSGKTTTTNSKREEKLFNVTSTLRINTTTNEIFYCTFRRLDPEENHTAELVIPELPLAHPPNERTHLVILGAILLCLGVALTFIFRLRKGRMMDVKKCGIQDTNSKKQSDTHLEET

[1] = biological target: T3, programmed death-ligand 1 (PD-L1, hPD-L1) (Homo sapiens, UniProt Q9NZQ7); test: co-crystal structure at […] Å (PD-L1 homodimer); IC50 from PD-1/PD-L1 HTRF assay; PD-L1/PD-L1 dimerization HTRF; assay type: binding
T3 construct: gene CD274; human PD-L1(18–134) with 6xHis carboxyl-terminal tag (crystal structure); recombinant Human PD-L1-His (HTRF)
T3 sequence (Q9NZQ7 18-134): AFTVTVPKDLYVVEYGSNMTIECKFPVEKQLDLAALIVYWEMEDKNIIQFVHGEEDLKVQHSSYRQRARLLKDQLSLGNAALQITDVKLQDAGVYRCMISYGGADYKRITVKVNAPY

| EC50 (PD-1/PD-L1) [nM] | IC50 (cell surface PD-L1) [nM] | SMILES | IC50 [1] [nM] |
| --- | --- | --- | --- |
| 17.9 | 2.1 | Cc1c(NC(=O)c2ccc(CNCCO)cn2)cccc1-c1cccc(NC(=O)c2ccc(CNCCO)cn2)c1C [ARB-272572] |  |
|  |  | Cc1c(NC(=O)c2ccc(CNCCO)cn2)cccc1-c1cccc(NC(=O)c2ccc(CNCCO)cn2)c1C [compound A, ARB-272572] | 0.4 |
